# Test results published in patent US10947213B1 (Merck Patent GmbH, priority 2015, dated 2021).
# Structures can show the parent of a compound that is named as a salt.
# Target: T1, TLR7/NFKb HEK cells (Homo sapiens, UniProt Q9NYK1)
# T1 construct: expressed in transfected cells; host or cells: HEK cells (TLR7/NFKb reporter line)
# T1 sequence (Q9NYK1 27-1049): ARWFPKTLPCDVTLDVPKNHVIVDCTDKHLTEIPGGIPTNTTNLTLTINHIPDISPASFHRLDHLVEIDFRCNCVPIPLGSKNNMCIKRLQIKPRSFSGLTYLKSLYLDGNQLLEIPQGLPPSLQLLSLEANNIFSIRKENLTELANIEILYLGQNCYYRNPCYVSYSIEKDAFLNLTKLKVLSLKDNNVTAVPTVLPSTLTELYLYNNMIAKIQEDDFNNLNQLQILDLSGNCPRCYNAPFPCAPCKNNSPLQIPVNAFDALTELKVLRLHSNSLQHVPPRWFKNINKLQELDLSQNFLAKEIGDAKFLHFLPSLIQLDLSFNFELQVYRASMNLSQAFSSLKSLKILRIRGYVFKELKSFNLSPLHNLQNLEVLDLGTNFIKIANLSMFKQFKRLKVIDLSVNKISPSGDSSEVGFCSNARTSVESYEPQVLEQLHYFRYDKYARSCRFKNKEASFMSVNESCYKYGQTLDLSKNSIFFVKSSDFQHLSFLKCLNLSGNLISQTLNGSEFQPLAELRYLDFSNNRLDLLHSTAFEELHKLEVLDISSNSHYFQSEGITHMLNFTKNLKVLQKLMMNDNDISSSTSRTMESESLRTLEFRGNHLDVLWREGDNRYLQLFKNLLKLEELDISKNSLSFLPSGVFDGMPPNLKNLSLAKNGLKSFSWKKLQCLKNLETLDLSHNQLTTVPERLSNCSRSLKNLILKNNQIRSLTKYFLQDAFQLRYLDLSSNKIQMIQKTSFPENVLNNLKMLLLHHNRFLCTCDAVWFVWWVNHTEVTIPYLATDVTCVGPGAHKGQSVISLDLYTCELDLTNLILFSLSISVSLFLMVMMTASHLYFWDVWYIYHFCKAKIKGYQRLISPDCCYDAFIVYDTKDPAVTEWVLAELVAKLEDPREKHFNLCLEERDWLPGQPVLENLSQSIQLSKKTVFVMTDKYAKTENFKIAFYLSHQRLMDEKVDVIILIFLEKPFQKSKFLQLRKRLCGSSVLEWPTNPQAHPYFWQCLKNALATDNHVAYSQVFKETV
# Assay: HEK Cell Assay (TLR7/NFKb reporter, Steady-Glo luciferase readout)
# Assay type: cell-based
# Settings: 30 min compound preincubation, then R*48 agonist for 5 hours, read-out: Potency
# Method in brief: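 Steady-Glo luminescence after 5 h stimulation with R*48 agonist, following 30 min compound preincubation. Assay run in HEK cells carrying a TLR7/NFKb luciferase reporter, plated at 5000 cells/well and grown 24 h at 37° C (10% CO2) before treatment.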
row,Compound,IC50 [nM]
1,"COc1ccc(N2C[C@@H](C)C[C@@H](NC(=O)CN(C)C)C2)c2nccnc12 [Compound 203, 2-(dimethylamino)-N-[(3R,5S)-1-(8-methoxyquinoxalin-5-yl)-5-methylpiperidin-3-yl]acetamide]",1000 to 10000
2,"C[C@H]1C[C@@H](N)CN(c2ncc(C#N)c3ncncc23)C1 [Compound 458, 5-((3R,5S)-3-Amino-5-methyl-piperidin-1-yl)-pyrido[4,3-d]pyrimidine-8-carbonitrile hydrochloride]",> 10000
3,"C[C@@H]1CN(c2ccc(C#N)c3nccnc23)C[C@H](CN2CCC(N3CCCC3)CC2)O1 [Compound 57, 8-((2R,6S)-2-methyl-6-((4-(pyrrolidin-1-yl)piperidin-1-yl)methyl)morpholino)quinoxaline-5-carbonitrile]",< 1000
4,"CC(C(=O)N[C@@H]1C[C@H](C)CN(c2ccc(C(F)F)c3nccnc23)C1)N1CC(O)C1 (stereo partly drawn) [Compound 321, N-[(3R,5S)-1-[8-(difluoromethyl)quinoxalin-5-yl]-5-methylpiperidin-3-yl]-2-(3-hydroxyazetidin-1-yl)propanamide]",1000 to 10000
5,"CC(C(=O)N[C@@H]1C[C@H](C)CN(c2ccc(C#N)c3nccnc23)C1)N1CC(F)(F)C1 (stereo partly drawn) [Compound 273, N-[(3R,5S)-1-(8-cyanoquinoxalin-5-yl)-5-methylpiperidin-3-yl]-2-(3,3-difluoroazetidin-1-yl)propanamide]",1000 to 10000
6,"CC(C)(C)CC(=O)NCC1CCN(c2ccnc3nccnc23)CC1 [Compound 399, 3,3-Dimethyl-N-(1-pyrido[2,3-b]pyrazin-8-yl-piperidin-4-ylmethyl)-butyramide]",> 10000
7,"C[C@@H]1CN(c2ccnc3nccnc23)C[C@H](CN2CCC(N3CCCC3)CC2)O1 [Compound 56, (2R,6S)-2-methyl-4-(pyrido[2,3-b]pyrazin-8-yl)-6-((4-(pyrrolidin-1-yl)piperidin-1-yl)methyl)morpholine]",1000 to 10000
8,"CC(C(=O)N[C@@H]1C[C@H](C)CN(c2ccc(C#N)c3nccnc23)C1)N1CCC(O)CC1 (stereo partly drawn) [Compound 275, N-[(3R,5S)-1-(8-cyanoquinoxalin-5-yl)-5-methylpiperidin-3-yl]-2-(4-hydroxypiperidin-1-yl)propanamide]",< 1000
9,"CCC(C)C(=O)N[C@@H]1C[C@H](C)CN(c2ccnc3nccnc23)C1 (single isomer, unassigned) [Compound 156]",> 10000
10,"CC(C)C(=O)NC1CCN(C[C@H]2CN(c3ccnc4nccnc34)C[C@@H](C)O2)CC1 [Compound 61, N-(1-(((2S,6R)-6-methyl-4-(pyrido[2,3-b]pyrazin-8-yl)morpholin-2-yl)methyl)piperidin-4-yl)isobutyramide]",1000 to 10000
11,"O=C(NC1CCN(CC2CC2)C1)C1CCN(c2ccc(C(F)(F)F)c3ncccc23)CC1 (single isomer, unassigned) [Compound 445]",< 1000
12,"CCN1CCC[C@H]1C(=O)NC1CC(C(F)(F)F)CN(c2ccc(C#N)c3ncccc23)C1 (single isomer, unassigned) [Compound 437]",1000 to 10000
13,"CCN(CC)CCC(=O)NC1CCN(c2ccnc3nccnc23)CC1 [Compound 396, 3-Diethylamino-N-(1-pyrido[2,3-b]pyrazin-8-yl-piperidin-4-yl)-propionamide]",> 10000
14,"C[C@H]1C[C@@H](NC(=O)[C@@H](C)N)CN(c2ccnc3nccnc23)C1 [Compound 26, (R)-2-amino-N-((3R,5S)-5-methyl-1-(pyrido[2,3-b]pyrazin-8-yl)piperidin-3-yl)propanamide]",1000 to 10000
15,"C[C@H]1C[C@@H](NC(=O)CC2CCN(C)CC2)CN(c2ccc(C#N)c3nccnc23)C1 [Compound 232, N-[(3R,5S)-1-(8-cyanoquinoxalin-5-yl)-5-methylpiperidin-3-yl]-2-(1-methylpiperidin-4-yl)acetamide]",< 1000

# Continued, values first:
row,IC50 [nM],Compound
1,< 1000,"C[C@H]1C[C@@H](NC(=O)CN2CCOCC2)CN(c2ccc(Cl)c3ncccc23)C1 [Compound 262, N-[(3R,5S)-1-(8-chloroquinolin-5-yl)-5-methylpiperidin-3-yl]-2-(morpholin-4-yl)acetamide]"
2,< 1000,"C[C@H]1C[C@@H](NC(=O)CN(C)C)CN(c2ccc(Cl)c3ncccc23)C1 [Compound 264, N-[(3R,5S)-1-(8-chloroquinolin-5-yl)-5-methylpiperidin-3-yl]-2-(dimethylamino)acetamide]"
3,< 1000,"C[C@H]1C[C@@H](NC(=O)CC2CCN(C)C2)CN(c2ccc(C(F)(F)F)c3ncccc23)C1 (stereo partly drawn) [Compound 283, N-[(3R,5S)-5-methyl-1-[8-(trifluoromethyl)quinolin-5-yl]piperidin-3-yl]-2-(1-methylpyrrolidin-3-yl)acetamide hydrochloride]"
4,< 1000,"N#Cc1ccc(N2CCC(CNC(=O)CN3CCCCC3)CC2)c2cccnc12 [Compound 409, N-[1-(8-Cyano-quinolin-5-yl)-piperidin-4-ylmethyl]-2-piperidin-1-yl-acetamide]"
5,< 1000,"CN1CCC(CNC(=O)C2CN(c3ccc(C#N)c4ncccc34)CC(F)(F)C2)CC1 (stereo not drawn) [Compound 531, 1-(8-Cyano-quinolin-5-yl)-5,5-difluoro-piperidine-3-carboxylic Acid (1-methyl-piperidin-4-ylmethyl)-amide]"
6,< 1000,"N#Cc1ccc(N2CCC(C(=O)NCCN3CCCC3)CC2)c2cccnc12 [Compound 422, 1-(8-Cyano-quinolin-5-yl)-piperidine-4-carboxylic Acid (2-pyrrolidin-1-yl-ethyl)-amide]"
7,< 1000,"C[C@H]1C[C@@H](NC(=O)CC(F)(F)F)CN(c2ccc(C#N)c3nccnc23)C1 [Compound 111, N-[(3R,5S)-1-(8-cyanoquinoxalin-5-yl)-5-methylpiperidin-3-yl]-3,3,3-trifluoropropanamide]"
8,< 1000,CC(C(=O)N[C@@H]1C[C@H](C)CN(c2ccc(C(F)(F)F)c3nccnc23)C1)N1CC(O)C1 (stereo partly drawn) [Compound 297]
9,< 1000,"CC(C)(C)CC(=O)N[C@H]1CN(c2ccc(C#N)c3nccnc23)CC(C)(C)C1 [Compound 215, N-[(3R)-1-(8-cyanoquinoxalin-5-yl)-5,5-dimethylpiperidin-3-yl]-3,3-dimethylbutanamide]"
10,< 1000,"C[C@H]1C[C@@H](NC2COC2)CN(c2ccc(C#N)c3nccnc23)C1 [Compound 137, 8-[(3S,5R)-3-methyl-5-[(oxetan-3-yl)amino]piperidin-1-yl]quinoxaline-5-carbonitrile]"
11,< 1000,"COCCN[C@@H]1C[C@H](C)CN(c2ccc(C#N)c3nccnc23)C1 [Compound 19, 8-((3R,5S)-3-(2-methoxyethylamino)-5-methylpiperidin-1-yl)quinoxaline-5-carbonitrile]"
12,< 1000,"CCN(CC)CCNC(=O)N1CCN(c2ccc(C#N)c3nccnc23)CC1 [Compound 453, 4-(8-Cyano-quinoxalin-5-yl)-piperazine-1-carboxylic acid (2-diethylamino-ethyl)-amide]"
13,< 1000,"CN1CCC(N[C@H]2CN(c3ccc(C#N)c4nccnc34)CC(C)(C)C2)C1=O (stereo partly drawn) [Compound 219, 8-[(5R)-3,3-dimethyl-5-[(1-methyl-2-oxopyrrolidin-3-yl)amino]piperidin-1-yl]quinoxaline-5-carbonitrile]"
14,< 1000,"C[C@H]1C[C@@H](NC(=O)CC2CCN(C)CC2)CN(c2ccc(C(F)(F)F)c3ncccc23)C1 [Compound 244, N-[(3R,5S)-5-methyl-1-[8-(trifluoromethyl)quinolin-5-yl]piperidin-3-yl]-2-(1-methylpiperidin-4-yl)acetamide]"
15,< 1000,"C[C@@H]1CN(c2ccc(C#N)c3nccnc23)C[C@H](CN2CCC(N3CCCCC3)CC2)O1 [Compound 59, 8-((2S,6R)-2-(1,4′-bipiperidin-1′-ylmethyl)-6-methylmorpholino)quinoxaline-5-carbonitrile]"
16,< 1000,"C[C@H]1C[C@@H](NC(=O)C(N)C2CC2)CN(c2ccc(C(F)(F)F)c3nccnc23)C1 (stereo partly drawn) [Compound 294, 2-amino-2-cyclopropyl-N-[(3R,5S)-5-methyl-1-[8-(trifluoromethyl)quinoxalin-5-yl]piperidin-3-yl]acetamide]"
17,< 1000,"C[C@H]1C[C@@H](NC(=O)CC2(C)CCN(C)CC2)CN(c2ccc(C#N)c3nccnc23)C1 [Compound 233, N-[(3R,5S)-1-(8-cyanoquinoxalin-5-yl)-5-methylpiperidin-3-yl]-2-(1,4-dimethylpiperidin-4-yl)acetamide]"
18,< 1000,"N#Cc1ccc(N2CC(N)CC(C(F)(F)F)C2)c2cccnc12 (single isomer, unassigned) [Compound 72]"
